Reference: the supplement of paper PMC10307832

Tests used:
Assay in all cases: relative viability (nuclei count vs DMSO), 5 days (fraction); higher = more cells survive
NCI-H2228 = tested on: NCI-H2228
In short: (§1)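 A single step with final 0.05% Triton X-100, 1% formaldehyde and 1 ug/ml Hoechst fixed the cells and stained nuclei 5 days after treatment. Lung cancer cell lines in 1536-well plates had been treated by pin tool the day after seeding with one drug alone or a fixed anchor-drug dose plus five library-drug doses (not always all listed) in √10 steps, and nuclei were counted on 4× images. Relative viability is the ratio of nuclei in treated wells to nuclei in vehicle wells, taken as the median of duplicate plates.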

RERF-LC-KJ = tested on: RERF-LC-KJ
In short: as §1

A-427 = tested on: A-427
In short: as §1

SK-MES-1 = tested on: SK-MES-1
In short: as §1

NCI-H23 = tested on: NCI-H23
In short: as §1

LCLC-103H = tested on: LCLC-103H
In short: as §1

NCI-H1734 = tested on: NCI-H1734
In short: as §1

LC-2-ad = tested on: LC-2-ad
In short: as §1

NCI-H1993 = tested on: NCI-H1993
In short: as §1

NCI-H1355 = tested on: NCI-H1355
In short: as §1

SW 1573 = tested on: SW 1573
In short: as §1

NCI-H650 = tested on: NCI-H650
In short: as §1

HCC-827 = tested on: HCC-827
In short: as §1

NCI-H1755 = tested on: NCI-H1755
In short: as §1

SK-LU-1 = tested on: SK-LU-1
In short: as §1

NCI-H2347 = tested on: NCI-H2347
In short: as §1

NCI-H2342 = tested on: NCI-H2342
In short: as §1

NCI-H1792 = tested on: NCI-H1792
In short: as §1

UMC-11 = tested on: UMC-11
In short: as §1

NCI-H1915 = tested on: NCI-H1915
In short: as §1

NCI-H2170 = tested on: NCI-H2170
In short: as §1

NCI-H1975 = tested on: NCI-H1975
In short: as §1

CN1CCN(CCOc2cc(OC3CCOCC3)c3c(Nc4c(Cl)ccc5c4OCO5)ncnc3c2)CC1 [Saracatinib] + CCNC(=O)c1noc(-c2cc(C(C)C)c(O)cc2O)c1-c1ccc(CN2CCOCC2)cc1 [Luminespib] (partner 0.01 µM)
relative viability (NCI-H2228; first compound 0.02 µM): 0.157 | relative viability (NCI-H2228; first compound 0.2 µM): 0.167 | relative viability (NCI-H2228; first compound 0.6325 µM): 0.0897 | relative viability (NCI-H2228; first compound 2 µM): 0.116 | relative viability (RERF-LC-KJ; first compound 0.02 µM): 1.27 | relative viability (RERF-LC-KJ; first compound 0.2 µM): 1.38 | relative viability (RERF-LC-KJ; first compound 0.6325 µM): 1.29 | relative viability (RERF-LC-KJ; first compound 2 µM): 1.16 | relative viability (A-427; first compound 0.02 µM): 0.985 | relative viability (A-427; first compound 0.2 µM): 0.755 | relative viability (A-427; first compound 0.6325 µM): 0.907 | relative viability (A-427; first compound 2 µM): 0.888 | relative viability (SK-MES-1; first compound 0.02 µM): 0.627 | relative viability (SK-MES-1; first compound 0.2 µM): 0.828 | relative viability (SK-MES-1; first compound 0.6325 µM): 0.348 | relative viability (SK-MES-1; first compound 2 µM): 0.207 | relative viability (NCI-H23; first compound 0.02 µM): 0.247 | relative viability (NCI-H23; first compound 0.2 µM): 0.193 | relative viability (NCI-H23; first compound 0.6325 µM): 0.196 | relative viability (NCI-H23; first compound 2 µM): 0.219 | relative viability (LCLC-103H; first compound 0.02 µM): 1.02 | relative viability (LCLC-103H; first compound 0.2 µM): 0.902 | relative viability (LCLC-103H; first compound 0.6325 µM): 0.975 | relative viability (LCLC-103H; first compound 2 µM): 0.9 | relative viability (NCI-H1734; first compound 0.02 µM): 0.224 | relative viability (NCI-H1734; first compound 0.6325 µM): 0.213 | relative viability (NCI-H1734; first compound 2 µM): 0.181 | relative viability (LC-2-ad; first compound 0.02 µM): 0.985 | relative viability (LC-2-ad; first compound 0.2 µM): 0.912 | relative viability (LC-2-ad; first compound 0.6325 µM): 1.1 | relative viability (LC-2-ad; first compound 2 µM): 0.949 | relative viability (NCI-H1993; first compound 0.02 µM): 0.907 | relative viability (NCI-H1993; first compound 0.2 µM): 0.716 | relative viability (NCI-H1993; first compound 0.6325 µM): 0.783 | relative viability (NCI-H1993; first compound 2 µM): 0.561 | relative viability (NCI-H1355; first compound 0.02 µM): 0.732 | relative viability (NCI-H1355; first compound 0.2 µM): 0.544 | relative viability (NCI-H1355; first compound 0.6325 µM): 0.697 | relative viability (NCI-H1355; first compound 2 µM): 0.634 | relative viability (SW 1573; first compound 0.02 µM): 0.195 | relative viability (SW 1573; first compound 0.2 µM): 0.217 | relative viability (SW 1573; first compound 0.6325 µM): 0.374 | relative viability (SW 1573; first compound 2 µM): 0.15 | relative viability (NCI-H650; first compound 0.02 µM): 0.685 | relative viability (NCI-H650; first compound 0.2 µM): 0.613 | relative viability (NCI-H650; first compound 0.6325 µM): 0.87 | relative viability (NCI-H650; first compound 2 µM): 0.68 | relative viability (HCC-827; first compound 0.02 µM): 0.709 | relative viability (HCC-827; first compound 0.2 µM): 0.311 | relative viability (HCC-827; first compound 0.6325 µM): 0.241 | relative viability (HCC-827; first compound 2 µM): 0.136 | relative viability (NCI-H1755; first compound 0.02 µM): 0.456 | relative viability (NCI-H1755; first compound 0.2 µM): 0.329 | relative viability (NCI-H1755; first compound 0.6325 µM): 0.447 | relative viability (NCI-H1755; first compound 2 µM): 0.414 | relative viability (SK-LU-1; first compound 0.02 µM): 0.232 | relative viability (SK-LU-1; first compound 0.2 µM): 0.139 | relative viability (SK-LU-1; first compound 0.6325 µM): 0.145 | relative viability (SK-LU-1; first compound 2 µM): 0.129 | relative viability (NCI-H2347; first compound 0.02 µM): 0.372 | relative viability (NCI-H2347; first compound 0.2 µM): 0.411 | relative viability (NCI-H2347; first compound 0.6325 µM): 0.774 | relative viability (NCI-H2347; first compound 2 µM): 0.416 | relative viability (NCI-H2342; first compound 0.02 µM): 0.659 | relative viability (NCI-H2342; first compound 0.2 µM): 0.698 | relative viability (NCI-H2342; first compound 0.6325 µM): 0.758 | relative viability (NCI-H2342; first compound 2 µM): 0.519 | relative viability (NCI-H1792; first compound 0.02 µM): 0.369 | relative viability (NCI-H1792; first compound 0.2 µM): 0.463 | relative viability (NCI-H1792; first compound 0.6325 µM): 0.449 | relative viability (NCI-H1792; first compound 2 µM): 0.358 | relative viability (UMC-11; first compound 0.02 µM): 0.96 | relative viability (UMC-11; first compound 0.6325 µM): 0.863 | relative viability (UMC-11; first compound 2 µM): 0.624 | relative viability (NCI-H1915; first compound 0.02 µM): 0.742 | relative viability (NCI-H1915; first compound 0.2 µM): 0.703 | relative viability (NCI-H1915; first compound 0.6325 µM): 0.872 | relative viability (NCI-H1915; first compound 2 µM): 0.654 | relative viability (NCI-H2170; first compound 0.02 µM): 0.658 | relative viability (NCI-H2170; first compound 0.2 µM): 0.596 | relative viability (NCI-H2170; first compound 0.6325 µM): 0.477 | relative viability (NCI-H2170; first compound 2 µM): 0.337 | relative viability (NCI-H1975; first compound 0.02 µM): 0.202 | relative viability (NCI-H1975; first compound 0.2 µM): 0.243 | relative viability (NCI-H1975; first compound 0.6325 µM): 0.182 | relative viability (NCI-H1975; first compound 2 µM): 0.188
